Source: ChEMBL document CHEMBL1201862, “PubChem BioAssay data set” (2004)
Active and inactive are the calls of the source.

Legend:
[1] = target: T1, Acyl-homoserine lactone acylase PvdQ (Pseudomonas aeruginosa (strain LESB58), UniProt Q9I194); assay: PvdQ acylase enzyme activity blockers – biochemical, fluorescence, plate reader and imaging, cherry-picks, dose response (AID 493231)
T1 sequence (Q9I194 whole entry): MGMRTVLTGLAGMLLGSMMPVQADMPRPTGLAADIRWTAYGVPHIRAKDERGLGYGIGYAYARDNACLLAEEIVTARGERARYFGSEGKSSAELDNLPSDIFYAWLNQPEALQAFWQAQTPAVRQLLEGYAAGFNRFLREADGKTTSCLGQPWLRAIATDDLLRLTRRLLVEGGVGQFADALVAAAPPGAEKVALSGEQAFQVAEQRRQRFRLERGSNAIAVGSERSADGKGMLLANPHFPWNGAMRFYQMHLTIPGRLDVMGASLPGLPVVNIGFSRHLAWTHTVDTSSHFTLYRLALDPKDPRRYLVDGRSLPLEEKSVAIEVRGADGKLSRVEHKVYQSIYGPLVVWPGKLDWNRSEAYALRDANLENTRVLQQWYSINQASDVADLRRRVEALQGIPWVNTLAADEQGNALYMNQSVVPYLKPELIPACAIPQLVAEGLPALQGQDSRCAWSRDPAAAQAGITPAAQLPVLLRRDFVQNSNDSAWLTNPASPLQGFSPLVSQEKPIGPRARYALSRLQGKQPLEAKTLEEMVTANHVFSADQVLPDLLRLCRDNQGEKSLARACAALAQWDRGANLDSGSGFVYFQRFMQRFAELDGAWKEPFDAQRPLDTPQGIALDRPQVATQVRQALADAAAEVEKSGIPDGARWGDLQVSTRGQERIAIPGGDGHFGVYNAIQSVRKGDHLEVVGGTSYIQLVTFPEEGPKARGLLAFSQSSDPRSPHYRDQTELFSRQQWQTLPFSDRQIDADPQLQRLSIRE

[2] = off-target signal loss in HeLa-CEM21 co-culture – HeLa F-luc CTL cells, cherry-picked, counter-screen for HIV-1 Env fusion inhibitor project, dose response (AID 652040); format: functional, cell-based;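 also: potency for signal decrease marking cytotoxic or nonspecific inhibition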
[3] = blockers of HIV-1 envelope-mediated cell-cell fusion – cherry-pick, dose response (AID 652057); format: functional, cell-based
[4] = viability loss in CEM21 cells – cell-based, CellTiter-Glo luminescence, cherry-picked, cytotoxicity control for viral fusion inhibitor project, dose response (AID 652042); format: functional;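 also: potency for signal decrease meaning cytotoxicity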
[5] = HIV-1 AD8 envelope cell-cell fusion blockers – cherry-pick, dose response (AID 652062); format: functional, cell-based;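 also: luciferase signal from cell-cell fusion driven by HIV-1 clade B AD8 Env; potency is for inhibitors of fusion seen as a drop in luminescence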
[6] = blockers of HIV-1 ZM109 envelope-driven cell-cell fusion – HeLa effector, CEM target cells, luciferase, cherry-pick, dose response (AID 652058); format: functional, cell-based;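 also: luciferase signal from HIV-1 Env mediated cell-cell fusion of effector and target cells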
[7] = target: T2, Estrogen receptor (Homo sapiens, UniProt P03372);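 also: potency for inhibiting coactivator peptide recruitment to the receptor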
T2 sequence (P03372 whole entry): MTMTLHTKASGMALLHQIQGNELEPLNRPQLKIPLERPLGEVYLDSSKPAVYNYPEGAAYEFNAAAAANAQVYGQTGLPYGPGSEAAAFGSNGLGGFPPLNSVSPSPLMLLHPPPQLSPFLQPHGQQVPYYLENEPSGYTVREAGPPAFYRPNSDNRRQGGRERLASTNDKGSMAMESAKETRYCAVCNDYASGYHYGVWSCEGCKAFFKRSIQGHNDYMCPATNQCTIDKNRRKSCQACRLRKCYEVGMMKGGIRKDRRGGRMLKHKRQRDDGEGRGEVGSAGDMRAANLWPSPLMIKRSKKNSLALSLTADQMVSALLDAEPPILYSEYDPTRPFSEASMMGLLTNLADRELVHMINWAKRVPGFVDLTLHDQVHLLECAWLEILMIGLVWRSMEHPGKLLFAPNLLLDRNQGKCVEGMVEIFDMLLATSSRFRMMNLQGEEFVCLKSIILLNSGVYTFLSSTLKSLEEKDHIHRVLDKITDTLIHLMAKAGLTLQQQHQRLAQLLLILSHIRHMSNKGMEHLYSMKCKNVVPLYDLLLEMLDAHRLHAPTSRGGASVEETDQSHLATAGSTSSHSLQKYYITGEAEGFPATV

[8] = target: T3, Protein Tat (Human immunodeficiency virus type 1 group M subtype B (isolate HXB2)(HIV-1), UniProt P04608); format: functional;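 also: tat binding to TAR RNA read out by fluorescence polarization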
T3 sequence (P04608 whole entry): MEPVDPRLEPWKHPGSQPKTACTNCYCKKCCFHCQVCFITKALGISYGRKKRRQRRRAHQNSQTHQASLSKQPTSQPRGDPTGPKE

[9] = target: T4, Estrogen receptor beta (Homo sapiens, UniProt Q92731);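 also: recombinant ER-beta bound to coactivator SRC1 peptide in presence of estradiol agonist; inhibitors block coactivator peptide binding and lower the FRET signal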
[10] = target: T4, Estrogen receptor beta; assay: blockers of SRC-3 recruitment to ERβ – biochemical, ELISA, streptavidin-HRP readout, orthogonal assay, confirmation (AID 1060)
[11] = Luminescence-based counterscreen assay for KLF5 inhibitors: dose response cell-based high throughput screening assay to identify cytotoxic compounds using the IEC-6 intestinal epithelial cell line. [Related pubchem assays: 1700 (Primary screen.), 1834 (Confirmation screen.), 1858 (Summary AID.), 1905 (Counterscreen.)]; format: functional
[12] = general mammalian cell viability loss – inhibitor set, cherry-pick, set 2, cytotoxicity control for miR-122 modulator project, dose response (AID 720697); format: functional, cell-based
[13] = general mammalian cell viability loss – activator set, cherry-pick, cytotoxicity control for miR-122 modulator project, dose response (AID 720690); format: functional, cell-based;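 also: HEK293T human cells scored for general mammalian cytotoxicity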
[14] = toxicity to human hepatoma HepG2 cells – cell-based, cherry-picked samples, cytotoxicity control, dose response (AID 1159577); format: functional
[15] = P. falciparum Dd2 growth inhibitors, dose response, SYBR Green, cherry-picked samples (AID 1159567); format: functional, cell-based
[16] = target: T5, Calpain-2 catalytic subunit (Sus scrofa, UniProt P43367); assay: m-calpain protease blockers, concentration series – biochemical, fluorogenic peptide substrate, dose response (AID 1420); format: functional
T5 sequence (P43367 whole entry): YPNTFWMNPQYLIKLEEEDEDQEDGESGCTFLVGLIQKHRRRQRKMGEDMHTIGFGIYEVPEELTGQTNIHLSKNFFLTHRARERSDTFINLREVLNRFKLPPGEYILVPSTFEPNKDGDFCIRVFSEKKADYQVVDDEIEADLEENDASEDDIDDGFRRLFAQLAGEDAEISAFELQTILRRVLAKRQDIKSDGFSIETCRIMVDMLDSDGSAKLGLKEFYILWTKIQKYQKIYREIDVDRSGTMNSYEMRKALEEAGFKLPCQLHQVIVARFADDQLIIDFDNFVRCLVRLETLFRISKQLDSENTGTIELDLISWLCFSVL

[17] = tested on: INS1; assay: INS-1E survival protection against cytokine death – cell-based, luminescence, retest, dose response (AID 449756); format: functional; conditions: Rattus norvegicus;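 also: cell death triggered by IL-1 beta plus TNF-alpha plus IFN-gamma mixture; protective hits raise ATP signal compared with cytokine alone wells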
[18] = target: T6, Carboxy-terminal domain RNA polymerase II polypeptide A small phosphatase 1 (Homo sapiens, UniProt Q9GZU7); assay: CTDSP1 inhibitors, concentration-response, biochemical, absorbance readout, ultra-high-throughput screen actives (AID 540297); format: functional
T6 sequence (Q9GZU7 whole entry): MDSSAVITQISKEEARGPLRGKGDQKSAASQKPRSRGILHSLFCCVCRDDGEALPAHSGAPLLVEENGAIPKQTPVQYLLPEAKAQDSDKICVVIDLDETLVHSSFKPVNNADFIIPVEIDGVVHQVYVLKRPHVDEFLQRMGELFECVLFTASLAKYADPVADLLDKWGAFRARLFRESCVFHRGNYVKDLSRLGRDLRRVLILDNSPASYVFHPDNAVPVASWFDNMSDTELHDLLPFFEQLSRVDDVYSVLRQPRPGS

T4 sequence (Q92731 whole entry): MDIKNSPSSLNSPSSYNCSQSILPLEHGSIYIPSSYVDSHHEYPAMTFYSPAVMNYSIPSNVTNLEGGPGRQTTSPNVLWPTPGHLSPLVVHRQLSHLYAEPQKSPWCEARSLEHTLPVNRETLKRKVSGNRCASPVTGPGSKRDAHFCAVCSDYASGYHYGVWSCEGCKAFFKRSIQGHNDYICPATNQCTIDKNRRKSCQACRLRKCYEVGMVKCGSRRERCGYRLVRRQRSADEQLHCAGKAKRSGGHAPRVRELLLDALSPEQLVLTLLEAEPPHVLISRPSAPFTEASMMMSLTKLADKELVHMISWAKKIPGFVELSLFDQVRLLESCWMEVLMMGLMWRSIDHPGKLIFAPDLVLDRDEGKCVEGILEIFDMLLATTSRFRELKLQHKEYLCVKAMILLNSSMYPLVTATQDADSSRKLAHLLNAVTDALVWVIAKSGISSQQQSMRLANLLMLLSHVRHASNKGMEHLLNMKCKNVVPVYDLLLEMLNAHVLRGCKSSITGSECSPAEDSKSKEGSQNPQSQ

For Cn1cccc1C(C#N)c1ccccc1C#N (stereo not drawn), the AC50 [1] was 7.71 µM (active).
In the case of CC[C@@]12C(=O)N(c3cccc(Cl)c3)C(=O)N1[C@H](c1ccc(Br)cc1)[C@@H]1C(=O)N(C(C)(C)C)C(=O)[C@@H]12, the AC50 [2] is reported as < 0.26 µM (active), the AC50 [3] is reported as < 0.26 µM (active) and the AC50 [4] is reported as 65.5 µM (active). For the same compound, the AC50 [5] was 0.342 µM (active) and the AC50 [6] was < 0.26 µM (active).
For COC(=O)c1ccc(OC(=O)c2cccs2)cc1, the AC50 [1] was 7.15 µM (active).
In the case of CC(=O)NC(C)C(=O)OCC(=O)Nc1ccc(Br)cc1 (stereo not drawn), the IC50 [7] is reported as > 50 µM (not active).
In the case of CCCCN1C(=O)NC(=O)C2(Cc3ccccc3N3CCOCC32)C1=O (stereo not drawn), the IC50 [8] is reported as > 100 µM (active).
With O=S(=O)(NCc1csc(-c2cccnc2)n1)c1ccc(Cl)s1 the IC50 [9] was 11.8 µM (active), the IC50 [7] was 13.6 µM (active) and the IC50 [10] was 99.4 µM (not active).
For CCC(=O)c1ccc(OC(=O)c2cccs2)cc1, the AC50 [1] was > 100 µM (inactive).
With COc1ccc(N2CCN(C(=O)c3ccc(Br)o3)CC2)cc1 the AC50 [1] was 7.33 µM (active).
With CN(C)c1ccc(/C=N/Nc2cccc(C(=O)O)c2)cc1 the IC50 [11] was > 39.8 µM (not active).
For CN(C[C@H]1N[C@@H](CO)[C@H]1c1ccc(-c2ccccc2)cc1)C(=O)C1CCC1, the AC50 [12] was 10.2 µM (active).
For CC(C)CC#Cc1ccc([C@H]2[C@@H](CO)N3CCCCN(S(=O)(=O)Cc4ccccc4)C[C@H]23)cc1, the AC50 [13] was 15 µM (active), the AC50 [14] was 8.87 µM (active) and the AC50 [15] was 5.43 µM (active).
In the case of CC(=N)/C(C#N)=C(/O)CSc1nnc(COc2ccccc2Cl)o1, the IC50 [16] is reported as < 0.4 µM (not active), the IC50 [9] is reported as 8.99 µM (active) and the IC50 [7] is reported as 37.2 µM (not active). For the same compound, the IC50 [10] was 5.64 µM (not active).
With O=C(C[C@H]1C[C@H]2c3cc(NS(=O)(=O)c4ccc(F)cc4)ccc3O[C@H]2[C@H](CO)O1)NCc1ccc(Cl)cc1 the AC50 [14] was > 39 µM (inactive) and the AC50 [15] was 6.82 µM (active).
For O=C(Nc1cccnc1)c1cccs1, the IC50 [11] was 38.4 µM (not active), the IC50 [16] was > 50 µM (not active) and the AC50 [17] was 6.6 µM (active).
With CCOC(=O)C1=C(O)/C(=C\c2ccc(CNC(=O)C(=O)Nc3ccccc3)o2)N=C1C the IC50 [9] was < 1.56 µM (active), the IC50 [8] was 5.9 µM (inconclusive) and the IC50 [18] was 8.55 µM (active). The IC50 [7] was 5.73 µM (active) and the IC50 [10] was 1.95 µM (not active).
